In the assay the target is CRBN (human cereblon) (Homo sapiens, UniProt Q96SW2). The experiment in a line: HTRF human cereblon binding kit (competition). In general terms: Time-resolved FRET reads energy transfer from a long-lived donor to a nearby acceptor.

In the case of `CC1(C)[C@H](NC(=O)c2ccc(N3CCN(CCCSc4ccc5c(c4)CN(C4CCC(=O)NC4=O)C5=O)CC3)nc2)C(C)(C)[C@H]1Oc1ccc(C#N)c(Cl)c1` (stereo partly shown) [GT19, PROTAC GT19], the IC50 (in general, the concentration needed to halve the response being measured) is 150 nM. This counts as sub-micromolar.

For the origin of these results see publication doi:10.1101/2025.02.26.640266v1, “Predicting PROTAC-targeted Degradation and Designing Androgen Receptor Degraders with AiPROTAC” (biorxiv, 2025).
